Laboratory results as given in PMC3156476 (ACS medicinal chemistry letters, 2011).

What was measured:
hA1AR [1] = target: T1, hA1AR (Homo sapiens, UniProt P30542); type: cell-based; details: compared to standard full agonist CPA / NECA
T1 sequence (P30542 1-326): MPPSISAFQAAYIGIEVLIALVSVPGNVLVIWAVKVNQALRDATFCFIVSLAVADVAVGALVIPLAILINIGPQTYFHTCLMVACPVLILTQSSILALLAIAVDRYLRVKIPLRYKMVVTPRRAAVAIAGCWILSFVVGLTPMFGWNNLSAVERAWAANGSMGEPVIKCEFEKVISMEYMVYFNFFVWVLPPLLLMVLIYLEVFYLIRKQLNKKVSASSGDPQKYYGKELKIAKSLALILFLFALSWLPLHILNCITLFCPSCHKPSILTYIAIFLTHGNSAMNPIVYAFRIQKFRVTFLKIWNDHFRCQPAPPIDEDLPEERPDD

hA1AR [2] = target: T1, hA1AR; details: read-out: Affinity Ki, A1; CHO cells expressing hA1AR; ref [6], [7], and [12]; cited from earlier work
hA3AR = target: T2, hA3AR (Homo sapiens, UniProt P0DMS8); details: read-out: Affinity Ki, A3; CHO cells expressing hA3AR; ref [6], [7], and [12]; cited from earlier work
T2 sequence (P0DMS8 1-318): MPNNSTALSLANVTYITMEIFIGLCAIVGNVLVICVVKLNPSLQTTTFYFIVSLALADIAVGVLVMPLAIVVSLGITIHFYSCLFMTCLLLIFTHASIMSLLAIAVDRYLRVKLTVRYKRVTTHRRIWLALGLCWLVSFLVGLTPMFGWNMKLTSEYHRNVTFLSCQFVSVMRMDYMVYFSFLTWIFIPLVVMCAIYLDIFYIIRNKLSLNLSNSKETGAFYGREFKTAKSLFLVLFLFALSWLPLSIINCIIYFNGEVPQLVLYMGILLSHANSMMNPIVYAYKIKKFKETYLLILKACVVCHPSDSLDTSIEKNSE

O[C@@H]1[C@H](O)[C@@H]2C[C@@H]2[C@H]1n1cnc2c(NC(C3CC3)C3CC3)nc(Cl)nc21 [Compound 21]
Agonist character at A1AR in cyclic AMP assay (hA1AR [1]): full agonism

CNC(=O)[C@@]12C[C@@H]1[C@@H](n1cnc3c(NCc4cccc(Cl)c4)nc(Cl)nc31)[C@H](O)[C@@H]2O [Compound 1, (1′S,2′R,3′S,4′R,5′S)-4′-{2-chloro-6-[(3-chlorophenylmethyl)amino]purin-9-yl}-1-(methylaminocarbonyl)bicyclo[3.1.0]hexane-2,3-diol]
Ki (hA1AR [2]): 260 ± 60 nM

O[C@@H]1[C@H](O)[C@H]2C[C@@H]2[C@H]1n1cnc2c(NCc3cccc(I)c3)nc(Cl)nc21 [Compound 5, (1′S,2′R,3′S,4′R,5′S)-4′-[2-chloro-6-(3-iodobenzylamino)-purine]-2′,3′-O-dihydroxybicyclo-[3.1.0]hexane]
Ki (hA3AR): 1.44 ± 0.6 nM

CNC(=O)[C@@]12C[C@@H]1[C@@H](n1cnc3c(NC4CCCC4)nc(Cl)nc31)[C@H](O)[C@@H]2O [Compound 2, (1′S,2′R,3′S,4′R,5′S)-4-(2-chloro-6-(cyclopentylamino)-9H-purin-9-yl)-2,3-dihydroxy-N-methylbicyclo[3.1.0]hexane-1-carboxamide]
Ki (hA1AR [2]): 18.3 ± 6.3 nM | Ki (hA3AR): 13.1 ± 5.1 nM

CCNC(=O)[C@H]1O[C@@H](n2cnc3c(N)ncnc32)[C@H](O)[C@@H]1O [NECA, 5′-N-ethylcarboxamidoadenosine]
Agonist character at A1AR in cyclic AMP assay (hA1AR [1]): full agonist
